Literature values as cited in patent US12486292B2, “Prodrug platform useful to deliver amines, amides and phenols” (Changchun Changcheng Pharmaceutical Technology Co., LTD, priority 2019, dated 2025).

Settings: phase I human clinical trials, oral dosing

In the case of `CCCC(CCC)C(=O)Nc1ccn([C@@H]2O[C@H](CO)[C@@H](O)C2(F)F)c(=O)n1` [LY2334737], the Hepatotoxicity is listed as “observed in some patients”.
